According to US5681820A, “Guanidinoalkyl glycine β-amino acids useful for inhibiting tumor metastasis” (G. D. Searle & Co., priority 1995, dated 1997):
pIC50: −log10 of the molar value. Where a name gives a salt, the structure may show the parent alone.

Columns and labels:
[1] = biological target: T1, human vitronectin receptor (αv β3) (Homo sapiens, UniProt P05106+P06756); assay: Solid Phase Receptor Assay: purified vitronectin receptor (αv β3), competition with biotinylated vitronectin; type: binding; conditions: 1 nM biotinylated vitronectin, read-out: VnR/IC50
T1 construct: Human vitronectin receptor(αv β3) was purified from human placenta; from tissue; host or cells: human placenta
Method: Human vitronectin receptor(αv β3) was purified from human placenta as previously described [Pytela et al., Methods in Enzymology, 144:475-489 (1987)]. Human vitronectin was purified from fresh frozen plasma as previously described [Yatohgo et al., Cell Structure and Function, 13:281-292 (1988)]. Biotinylated human vitronectin was prepared by coupling NHS-biotin from Pierce Chemical Company (Rockford, Ill.) to purified vitronectin as previously described [Charo et al., J. Biol. Chem., 266(3):1415-1421 (1991)]. Assay buffer, OPD substrate tablets, and RIA grade BSA were obtained from Sigma (St. Louis, Mo.). Anti-biotin antibody was obtained from Calbiochem (La Jolla, Calif.). GRGDSP peptide was purchased from Bachem (Torrance, Calif.). Linbro microtiter plates were obtained from Flow Labs (McLean, Va.). ADP reagent was obtained from Sigma (St. Louis, Mo.).
Solid Phase Receptor Assays
This assay was essentially the same as previously reported [Niiya et al., Blood, 70:475-483 (1987)]. […] The plate was read with a microtiter plate reader at a wavelength of 450 nm and when the maximum-binding control wells reached an absorbance of about 1.0, the final A450 were recorded for analysis. The data were analyzed using a macro written for use with the EXCEL™ spreadsheet program. The mean, standard deviation, and %CV were determined for duplicate concentrations. […]

[2] = tested on: M21 human melanoma cells (αv β3-dependent adhesion); assay: M21 Melanoma Cell Adhesion Assay: αv β3-dependent adhesion to human fibrinogen; type: cell-based; conditions: 0.5 h, 200 μM Mn++, 30 minutes, 37° C.
Method: M21 Melanoma Cell Adhesion Assasy
This assay involves an αv β3 -dependent adhesion of M21 human melanoma cells to human fibrinogen-coated plastic tissue culture dishes.
Fibrinogen was purified from human plasma. Fibronectin and plasminogen were eliminated from the preparation by passing the sample over gelatin-sepharose 4B and lysine-sepharose 4B resins, respectively. The fibrinogen is diluted to 10 μg/mL in coating buffer (20 mM Tris-HCl, 150 mM NaCl, pH 7.4). 100 μL of diluted fibrinogen is added to each well of a 96-well Immulon 2 microtiter plate (Dynatech; Chantilly, Va.) and allowed to coat overnight at 4° C. […]
M21 human melanoma cells were provided by Dr. J. Smith, La Jolla Cancer Research Institute. […] Cells are counted and suspended to a density of 2×10^6 /mL in adhesion assay buffer containing 200 μM Mn^++. […]
Following adhesion, plates are gently washed 3 times with 200 μL of wash buffer (50 mM Tris-HCl, 150 mM NaCl, pH 7.4) using large bore pipet tips. Plates are briefly blotted dry and 100 μL of cell lysis buffer (50 mM sodium acetate, pH 5.0, 0.5% Triton X-100, 0.3 mg/mL p-nitrophenyl phosphate [Sigma] is added to each well. Plates are incubated for 60 minutes at 37° C. and 50 μL of 1N NaOH is added to stop the reaction. The absorbance of the wells at […] is read using an automatic plate reader.

A3827 cells = assay: Cell Adhesion Assay: adhesion of A3827 cells to fibrinogen; type: cell-based; conditions: 300 μM MnCl2, 1 hour, 37° C.
Method: Fibrinogen was purified from human plasma. Fibronectin and plasminogen were eliminated from the preparation by passing the sample over gelatin-sepharose 4B and lysine-sepharose 4B resins, respectively. The fibrinogen was resuspended at a concentration of 10 μg/mL in 100 mM sodium bicarbonate, pH 9.0. Immulon II (Nunc) microtiter plates were coated by incubating with 100 μL/well of fibrinogen solution overnight at 4° C. After coating with fibrinogen, plates were rinsed three times with phosphate buffered saline (PBS) and 100 μL of a 1% bovine serum albumin (BSA) solution was added to each well and stored at -20° C. until needed. A3827 cells were harvested from subconfluent 75 cm^2 culture flasks with 2 mM EDTA in PBS and resuspended at 5×10^5 cells/mL in Dulbecco's PBS without calcium or magnesium (Sigma #5652) containing 1% BSA. MnCl2 was added to a final concentration of 300 μM. Test compounds were resuspended in PBS and added to the cell suspension before serial dilution. […] Adherent cells were quantitated using a non-radioactive cell proliferation assay (Promega #G5430) using the instructions provided by the supplier. Plates were allowed to equilibrate overnight at room temperature in a humidified chamber and a Biotek EL312 microplate spectrophotometer was used to measure the difference in absorbance at […]. […]

A pIC50 [1] of 6.01 and a pIC50 [2] of 5.85 were found for `CCOC(=O)CC(NC(=O)CNC(=O)CCCNC(=N)N)c1cccnc1` (racemic) [Example 3-ethyl ester, (±) ethyl β-[[2-[[4-[(aminoiminomethyl)amino]-1-oxobutyl]amino]-1-oxoethyl]amino]-3-pyridinepropanoate] in this work.
A pIC50 (A3827 cells) of 7.52 and a pIC50 [2] of 7.39 were found for `N=C(N)NCCCCC(=O)NCC(=O)NC(CC(=O)O)c1cccnc1` (stereo not drawn) [Example 1, β-[[2-[[5-[(aminoiminomethyl)amino]-1-oxopentyl]amino]-1-oxoethyl]amino]-3-pyridinepropanoic acid, bistrifluoroacetate salt] in this work.
A pIC50 [1] of 6.85 was found for `N=C(N)NCCCCC(=O)N1CCC[C@H]1C(=O)N[C@@H](CC(=O)O)c1cccnc1` [Example 2, βS-[[[1-[5-[(aminoiminomethyl)amino]-1-oxopentyl]pyrrolidin-2-yl]carbonyl]amino-3-pyridinepropanoic acid, bistrifluoroacetate salt] in this work.
